According to paper PMC6661730, “Biochemical characterization of a novel exo-oligoxylanase from Paenibacillus barengoltzii suitable for monosaccharification from corncobs” (Biotechnology for Biofuels, 2019):

Biological target: T1, PbRex8 (Paenibacillus barengoltzii, UniProt R9L536)
T1 construct: gene C812_03928; full-length ORF, 382 residues (predicted 44 kDa), no signal peptide; N-terminal His6-tag from pET-28a(+) (NheI/XhoI), tag cleavage not mentioned; E. coli BL21(DE3); monomer; primers encode N-terminal MKEHQG and C-terminal RGEA
T1 sequence (R9L536 entry or part of it): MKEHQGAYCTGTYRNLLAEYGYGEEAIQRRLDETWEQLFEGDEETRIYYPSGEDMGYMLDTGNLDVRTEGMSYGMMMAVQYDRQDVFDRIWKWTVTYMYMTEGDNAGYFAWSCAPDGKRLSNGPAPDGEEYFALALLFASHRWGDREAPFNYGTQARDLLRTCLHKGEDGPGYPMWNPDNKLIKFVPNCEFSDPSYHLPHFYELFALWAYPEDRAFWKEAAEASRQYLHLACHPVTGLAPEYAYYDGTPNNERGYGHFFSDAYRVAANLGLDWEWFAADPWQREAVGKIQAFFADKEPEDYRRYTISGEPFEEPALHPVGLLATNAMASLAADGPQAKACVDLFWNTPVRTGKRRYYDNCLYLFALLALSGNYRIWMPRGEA
Experiment: HPLC-RID xylose release, nonlinear regression
Format: biochemical
Conditions: competitive; X3 as substrate, 5 mM citrate pH 5.5, 55 °C

Ki: 12.9 ± 0.6 mM
Compound: OC1OC[C@@H](O)[C@H](O)[C@H]1O (stereo partly shown) [X, xylose]
